This data set concerns aqueous solubility in PBS. The data set is described as follows: qHTS Assay for Inhibitors of Bacillus subtilis Sfp phosphopantetheinyl transferase (PPTase): Aqueous Solubility in PBS. An excerpt:
PPTases are responsible for the activation of a variety of pathogen-associated virulence factors. Among these compounds are toxins such as mycolactone from Mycobacterium ulcerans, siderophores such as vibriobactin from Vibrio cholerae or mycobactin from Mycobacterium tuberculosis, as well as the mycolic acids which form the waxy cell wall of Mycobacteria. The biosyntheses of these natural products are considered attractive targets for drug design. After a large qHTS and several follow-up assays, a small molecule was identified and this in vitro ADME assay serves to better characterize its properties.
This profiling assay looks at the […] of a small molecule in PBS (pH 7.4). This is an important parameter as it has significant impact on in vivo results, such as uptake, distribution, transport, and eventually bioavailability. This outcome is also of utmost importance for decisions concerning assay data and SAR strategy.
NIH Chemical Genomics Center [NCGC]
NIH Molecular Libraries Probe Centers Network [MLPCN]
Assay Submitter (PI): Michale Burkart, University of California, San Diego
1. 8ul of reference and test compound stock solution were added to 392ul 100mM phosphate buffer (pH 7.4)
2. Sample tubes were shaken for 1 hr (1000 rpm) at room temperature
3. […]
5. Concentration of the supernatant was determined by LC-UV or LC-MS/MS
On the technique in general: Quantitative high-throughput screening tests each substance at several concentrations.

Broadly, the solubility is the concentration that dissolves in the medium under given conditions.

Converted amounts (≈) assume the structure as drawn.

With `COc1ccnc(NC(=S)N2CCN(c3ncc(C(F)(F)F)cc3Cl)CC2)c1`, the solubility was 20 µM (≈ 8.64 µg/mL).
